Experimental data taken from patent US10294202B2, “Pyrrolidinones as herbicides” (FMC Corporation, priority 2013, dated 2019).

Tested on: Rice, W.S. Jap
Assay: Test F flood (paddy) test
Assay type: in vivo, Oryza sativa cv. Japonica—M202
Conditions: 21 d, scale 0-100
Excerpt: Three plastic pots (ca. 16-cm diameter) per rate were partially filled with sterilized Tama silt loam soil comprising a 35:50:15 ratio of sand, silt and clay and 2.6% organic matter. Separate plantings for each of the three pots were as follows. Seeds from the U.S. of monochoria (Monochoria vaginalis), sedge, umbrella (small-flower umbrella sedge, Cyperus difformis), bulrush, […] bulrush, Scirpus juncoides), and […] (purple […] coccinea), were planted into one 16-cm pot for each rate. Seeds from the U.S. of flatsedge, rice (rice flatsedge, Cyperus iria), sprangletop, Brdd. (bearded sprangletop, Leptochloa fascicularis), one stand of 9 or 10 water seeded rice seedlings (Rice, W.S. Jap, Oryza sativa cv. 'Japonica-[…]' or Rice, W.S. Ind, 'Indica'), and two stands of 3 or 4 seedlings of rice, transplanted (transplanted rice, Oryza sativa cv. 'Japonica-[…]') were planted into one 16-cm pot for each rate. Seeds from the U.S. of barnyardgrass (Echinochloa crus-galli), […] (common […], Alisma plantago-aquatica), and watergrass, late (late watergrass, Echinochloa oryzicola) were planted into one 16-cm pot for each rate. Plantings were sequential so that crop and weed species were at the 2.0 to 2.5-leaf stage at time of treatment. Potted plants were grown in a greenhouse with day/night temperature settings of 30/27° C., and supplemental balanced lighting was provided to maintain a 16-h photoperiod. Test pots were maintained in the greenhouse until test completion. At time of treatment, test pots were flooded to 3 cm above the soil surface, treated by application of test compounds directly to the paddy water, and then maintained at that water depth for the duration of the test. Effects of treatments on rice and weeds were visually evaluated by comparison to untreated controls after 21 d. Plant response ratings, summarized in Table F, are based on a scale of 0 to 100 where 0 is no effect and 100 is complete control. A dash (-) response means no test result.

For `O=C1NCC(c2cccc(C(F)(F)F)c2)C1C(=O)Nc1ccccc1F` (racemic) [Compound 3], the “Plant response rating, Rice, W.S. Jap” value (250 g ai/ha) was 0 and the “Plant response rating, Rice, W.S. Jap” value (500 g ai/ha) was 10.
